Experimental data: US20120171144A1, “METHODS OF TREATING, REDUCING AND INHIBITING THE APPEARANCE OF AGEING IN THE SKIN” (priority 2006, published 2012)

Columns and labels:
skin elastin = assay: 3H-elastin cleavage assay, skin elastin; format: biochemical
Protocol: (§1) FIG. 2: granzyme B degrades elastin in vitro. Granzyme B was incubated with ^3H-elastin for 7 days at room temperature. Elastase was incubated with ^3H-elastin for 2 hours. Supernatants containing the soluble elastin cleavage fragments were collected and counted. Data is represented as fold increase in radioactivity over the control (elastin only). (n=2)
(§2) Tritiated elastin was prepared with the modifications as described in Banda, M. J. and Werb, Z. (1981) Biochem J 193: 589-605 and Gordon, S., Werb, Z. and Cohn, Z. A. (1976) in In Vitro Methods in Cell Mediated and Tumor Immunity, eds. Bloom, B. R. and David, J. R. (Academic Press, New York), pages 349-350. 1 mg of skin or aortic elastin was diluted in 1 ml dH2O and pHed to 9.2. 1 mCi NaB3H4 (PerkinElmer, Waltham Mass.) and 2 mg of non-radioactive […] (Sigma, St. Louis, Mo.) was added. After 2 hours of incubation, the pH was adjusted to 3.0 and the elastin was incubated for an additional 30 minutes. The elastin was centrifuged for 3 minutes at 5000×g and the pellet was repeatedly washed to remove excess NaB3H4. […] The radioactivity of the soluble, cleaved elastin fragments in the supernatant was counted in Ready Safe Scintillation Fluid (Beckman-Coulter, Fullerton, Calif.). The radioactivity of the cleaved, soluble elastin fragments was 4.8 times and 2.7 times higher than background for skin and aortic elastin, respectively (FIG. 2).

aortic elastin = assay: 3H-elastin cleavage assay, aortic elastin; format: biochemical
Protocol: as §1, §2

[1] = 25 μg elastase, 2 hours, positive control
[2] = 0.15 mg 3H-elastin, granzyme B 0.75 μg added 5 times, room temperature, 7 days

Question: For elastase, which “radioactivity increase over background” value (skin elastin; [1]) is on record?
Answer: Its value is 14.9 fold.

Question: What about the “radioactivity increase over background” value (aortic elastin; [1]) of the same substance?
Answer: Its value is 7.7 fold.

Question: Which “radioactivity of the cleaved, soluble elastin fragments, higher than background” value (skin elastin; [2]) does the source give for “granzyme B: serine protease that is capable of cleaving elastin and other extracellular proteins” here?
Answer: Its value is 4.8 times.

Question: What about the “radioactivity of the cleaved, soluble elastin fragments, higher than background” value (aortic elastin; [2]) of the same substance?
Answer: The value was 2.7 times.
